Experimental data: the NIST ThermoML archive (doi:10.1016/j.jct.2018.05.029)

Assay: molar heat capacity at saturation pressure

Cc1cc2ccccc2[nH]1 [2-methylindole]
molar heat capacity [J/K/mol]
Details	Crystal	Liquid
10 K, Vacuum adiabatic calorimetry	2.311	–
11.27 K, Vacuum adiabatic calorimetry	3.226	–
12.41 K, Vacuum adiabatic calorimetry	4.157	–
13.64 K, Vacuum adiabatic calorimetry	5.288	–
15.08 K, Vacuum adiabatic calorimetry	6.718	–
16.68 K, Vacuum adiabatic calorimetry	8.364	–
18.46 K, Vacuum adiabatic calorimetry	10.26	–
20 K, Vacuum adiabatic calorimetry	11.87	–
20.49 K, Vacuum adiabatic calorimetry	12.38	–
22.77 K, Vacuum adiabatic calorimetry	14.82	–
25.3 K, Vacuum adiabatic calorimetry	17.44	–
27.77 K, Vacuum adiabatic calorimetry	19.95	–
30 K, Vacuum adiabatic calorimetry	22.09	–
30.59 K, Vacuum adiabatic calorimetry	22.64	–
34.09 K, Vacuum adiabatic calorimetry	25.92	–
37.85 K, Vacuum adiabatic calorimetry	29.24	–
40 K, Vacuum adiabatic calorimetry	31.03	–
41.97 K, Vacuum adiabatic calorimetry	32.62	–
46.6 K, Vacuum adiabatic calorimetry	36.27	–
50 K, Vacuum adiabatic calorimetry	38.75	–
51.65 K, Vacuum adiabatic calorimetry	39.93	–
53.69 K, Vacuum adiabatic calorimetry	41.38	–
57.12 K, Vacuum adiabatic calorimetry	43.67	–
59.07 K, Vacuum adiabatic calorimetry	45	–
60 K, Vacuum adiabatic calorimetry	45.61	–
64.85 K, Vacuum adiabatic calorimetry	48.69	–
70 K, Vacuum adiabatic calorimetry	51.82	–
71.32 K, Vacuum adiabatic calorimetry	52.61	–
78.49 K, Vacuum adiabatic calorimetry	56.75	–
80 K, Vacuum adiabatic calorimetry	57.59	–
86.43 K, Vacuum adiabatic calorimetry	61.12	–
90 K, Vacuum adiabatic calorimetry	63.03	–
95.28 K, Vacuum adiabatic calorimetry	65.82	–
100 K, Vacuum adiabatic calorimetry	68.27	–
104.89 K, Vacuum adiabatic calorimetry	70.77	–
114.73 K, Vacuum adiabatic calorimetry	75.78	–
120 K, Vacuum adiabatic calorimetry	78.44	–
124.69 K, Vacuum adiabatic calorimetry	80.8	–
134.71 K, Vacuum adiabatic calorimetry	85.9	–
140 K, Vacuum adiabatic calorimetry	88.58	–
144.77 K, Vacuum adiabatic calorimetry	91.01	–
154.9 K, Vacuum adiabatic calorimetry	96.19	–
160 K, Vacuum adiabatic calorimetry	98.83	–
165.05 K, Vacuum adiabatic calorimetry	101.46	–
175.19 K, Vacuum adiabatic calorimetry	106.71	–
180 K, Vacuum adiabatic calorimetry	109.23	–
185.36 K, Vacuum adiabatic calorimetry	112.05	–
195.56 K, Vacuum adiabatic calorimetry	117.49	–
200 K, Vacuum adiabatic calorimetry	119.87	–
205.76 K, Vacuum adiabatic calorimetry	122.96	–
215.96 K, Vacuum adiabatic calorimetry	128.49	–
220 K, Vacuum adiabatic calorimetry	130.72	–
226.14 K, Vacuum adiabatic calorimetry	134.11	–
236.28 K, Vacuum adiabatic calorimetry	139.71	–
240 K, Vacuum adiabatic calorimetry	141.78	–
246.38 K, Vacuum adiabatic calorimetry	145.35	–
256.59 K, Vacuum adiabatic calorimetry	151.16	–
260 K, Vacuum adiabatic calorimetry	153.09	–
266.92 K, Vacuum adiabatic calorimetry	157.02	–
276.47 K, Vacuum adiabatic calorimetry	162.53	–
277.41 K, Vacuum adiabatic calorimetry	163.05	–
280 K, Vacuum adiabatic calorimetry	164.7	–
287.09 K, Vacuum adiabatic calorimetry	169.07	–
288.08 K, Vacuum adiabatic calorimetry	169.56	–
297.66 K, Vacuum adiabatic calorimetry	175.26	–
298.15 K, Vacuum adiabatic calorimetry	175.55	224.57
298.88 K, Vacuum adiabatic calorimetry	176.09	–
300 K, Vacuum adiabatic calorimetry	176.66	225.41
302.77 K, Vacuum adiabatic calorimetry	178.44	–
304.06 K, Vacuum adiabatic calorimetry	179.13	–
308.05 K, Vacuum adiabatic calorimetry	181.6	–
309.63 K, Vacuum adiabatic calorimetry	182.65	–
311.79 K, Vacuum adiabatic calorimetry	184.11	–
312.14 K, Vacuum adiabatic calorimetry	184.35	–
320 K, Vacuum adiabatic calorimetry	189.37	234.36
320.34 K, Vacuum adiabatic calorimetry	189.58	–
331.97 K, Vacuum adiabatic calorimetry	197.27	239.7
337.63 K, Vacuum adiabatic calorimetry	–	242.18
338.88 K, Vacuum adiabatic calorimetry	–	242.77
340 K, Vacuum adiabatic calorimetry	–	243.31
341.57 K, Vacuum adiabatic calorimetry	–	244.01
349.89 K, Vacuum adiabatic calorimetry	–	247.67
350.31 K, Vacuum adiabatic calorimetry	–	247.9
360 K, Vacuum adiabatic calorimetry	–	252.22
362.02 K, Vacuum adiabatic calorimetry	–	253.13
374.86 K, Vacuum adiabatic calorimetry	–	258.66
380 K, Vacuum adiabatic calorimetry	–	260.9
387.5 K, Vacuum adiabatic calorimetry	–	264.11
399.88 K, Vacuum adiabatic calorimetry	–	269.16
400 K, Vacuum adiabatic calorimetry	–	269.22
412.6 K, Vacuum adiabatic calorimetry	–	274.35
420 K, Vacuum adiabatic calorimetry	–	277.24
425.58 K, Vacuum adiabatic calorimetry	–	279.37
436.98 K, Vacuum adiabatic calorimetry	–	283.72
440 K, Vacuum adiabatic calorimetry	–	284.91
460 K, Small sample (50 mg) DSC	–	292.55
480 K, Small sample (50 mg) DSC	–	299.89
500 K, Small sample (50 mg) DSC	–	307.02
520 K, Small sample (50 mg) DSC	–	313.94
540 K, Small sample (50 mg) DSC	–	320.66
560 K, Small sample (50 mg) DSC	–	327.16
580 K, Small sample (50 mg) DSC	–	333.46
600 K, Small sample (50 mg) DSC	–	339.55
620 K, Small sample (50 mg) DSC	–	345.45
640 K, Small sample (50 mg) DSC	–	351.22
660 K, Small sample (50 mg) DSC	–	356.94
680 K, Small sample (50 mg) DSC	–	362.78
700 K, Small sample (50 mg) DSC	–	369.01
